Test results taken from patent publication EP0063525A1, “Dibenzazepine tetracyclic derivatives, process for their preparation and pharmaceutical compositions containing them” (CENTRE NATIONAL DE LA RECHERCHE SCIENTIFIQUE (CNRS), priority 1981, dated 1982).
Like-named read-outs stand apart in the source and are kept apart here.

Columns and labels:
[1] = acute toxicity in the mouse, intraperitoneal; format: in vivo, Souris; conditions: mouse, in vivo, ip, voie intrapéritonéale; for LD50 at 48 h: souris femelles, read-out: DL 50; for mortality at 48 h: read-out: Mortalité %
Description: (§1) Les produits ont été administrés par voie intrapéritonéale à des souris femelles dont le poids variait de 18 à 30 g.
(§2) Les animaux injectés ont été maintenus dans une salle thermostatée, nourris et abreuvés à volonté.
(§3) La mortalité a été relevée à 1 heure, 4 heures, 24 heures et 48 heures.

[2] = test system: souris femelles; assay: acute toxicity in the mouse, intraperitoneal; format: in vivo; conditions: voie intrapéritonéale; for Mortalité en 1 heure / Mortalité en 48 h. / Mortalité en 48 heures: dead mice of the group
Description: as §1, §2, §3

[3] = test system: Souris; assay: antireserpine activity: reserpine hypothermia; format: in vivo; conditions: réserpine 5 mg/kg i.p. 17 h before
Description: On note ensuite les températures témoins (réserpine), puis les températures 1, 2, 3 et 4 heures après l'administration des produits étudiés.
Les animaux sont répartis en lots de 4 animaux et reçoivent par voie intrapéritonéale la réserpine à une dose de 5 mg/kg. 17 heures après cette injection, on mesure la température corporelle de l'animal à l'aide d'une sonde thermocouple introduite dans le rectum; chaque lot reçoit ensuite la substance par voie intrapéritonéale. Le lot témoin reçoit la même quantité de solvant et par la même voie. La température corporelle est ensuite mesurée toutes les heures pendant 4 heures.
Les résultats sont rassemblés dans un tableau récapitulatif-où sont indiqués : • - la température moyenne pour chaque lot relevée 17 heures après l'injection de la réserpine, • - la moyenne des variations de température pour chaque lot relevées 1,2, 3 et 4 heures après l'injection de la substance étudiée, • - la somme des variations de températures pendant 4 heures, • - le pourcentage d'augmentation de la température pour chaque produit par rapport aux témoins.

[4] = ip, 4 h, product i.p. 150 mg/kg, read-out: % d'augmentation par rapport aux témoins
[5] = ip, 4 h, product i.p. 50 mg/kg, read-out: % d'augmentation par rapport aux témoins

c1ccc(C2=NOC3c4ccccc4Nc4ccccc4C23)cc1 (stereo not drawn) [compound 1, phényl-3 trihydro-3a,8,12b (dibenzo [b,f]isoxazolo [4,5-d])azépine]
LD50 at 48 h [1]: > 100 mg/kg | mortality at 48 h ([1]; 50 mg/kg): 0% | mortality at 48 h ([1]; 100 mg/kg): 0% | Mortalité en 1 heure ([2]; 50 mg/kg): 0 | Mortalité en 48 h. ([2]; 50 mg/kg): 0 | Mortalité en 1 heure ([2]; 100 mg/kg): 0 | Mortalité en 48 h. ([2]; 100 mg/kg): 0 | change in vivo at 15 mg/kg ([3]; ip, 4 h, product i.p. 15 mg/kg, read-out: % d'augmentation par rapport aux témoins): 45% | variation de température T= 2h ([3]; product i.p. 15 mg/kg): +0,5 | variation de température T=3h ([3]; product i.p. 15 mg/kg): +0,4 | variation de température T=4h ([3]; product i.p. 15 mg/kg): +0,7

CC(CN(C)C)CN1c2ccccc2C2ON=C(c3ccccc3)C2c2ccccc21 (stereo not drawn) [compound 4, (méthyl-2 diméthylamino-3 propyl)-8 phényl-3 trihydro-3a, 8, 12b (dibenzo[b,f]-isoxazolo [4,5-d]) azépine]
LD50 at 48 h [1]: 175 mg/kg | mortality at 48 h ([1]; 100 mg/kg): 0% | mortality at 48 h ([1]; 300 mg/kg): 100% | Mortalité en 1 heure ([2]; 100 mg/kg): 0 | Mortalité en 48 h. ([2]; 100 mg/kg): 0 | Mortalité en 1 heure ([2]; 300 mg/kg): 4 | Mortalité en 48 h. ([2]; 300 mg/kg): 4

OCCN1CCN(CCCN2c3ccccc3C3ON=C(c4ccccc4)C3c3ccccc32)CC1 (stereo not drawn) [compound 5]
LD50 at 48 h [1]: 125 mg/kg | mortality at 48 h ([1]; 75 mg/kg): 20% | mortality at 48 h ([1]; 125 mg/kg): 40% | mortality at 48 h ([1]; 200 mg/kg): 100% | mortality at 48 h ([1]; 250 mg/kg): 100% | Mortalité en 1 heure ([2]; 75 mg/kg): 1 | Mortalité en 48 h. ([2]; 75 mg/kg): 1 | Mortalité en 1 heure ([2]; 125 mg/kg): 2 | Mortalité en 48 h. ([2]; 125 mg/kg): 2 | Mortalité en 1 heure ([2]; 200 mg/kg): 5 | Mortalité en 48 h. ([2]; 200 mg/kg): 5 | Mortalité en 1 heure ([2]; 250 mg/kg): 5 | Mortalité en 48 h. ([2]; 250 mg/kg): 5

c1ccc(C2=NN(c3ccccc3)C3c4ccccc4Nc4ccccc4C23)cc1 (stereo not drawn) [compound 6, diphényl-1,3 tétrahydro-1,3a,8,12b(dibenzo [b,d]pyrazolo[3,4-d])hazépine]
LD50 at 48 h [1]: > 750 mg/kg | mortality at 48 h ([1]; 500 mg/kg): 0% | mortality at 48 h ([1]; 750 mg/kg): 0% | Mortalité en 1 heure ([2]; 500 mg/kg): 0 | Mortalité en 48 h. ([2]; 500 mg/kg): 0 | Mortalité en 1 heure ([2]; 750 mg/kg): 0 | Mortalité en 48 h. ([2]; 750 mg/kg): 0 | change in vivo at 150 mg/kg [3, 4]: 80% | variation de température T= 2h ([3]; product i.p. 150 mg/kg): +0,7 | variation de température T=3h ([3]; product i.p. 150 mg/kg): +0,6 | variation de température T=4h ([3]; product i.p. 150 mg/kg): +0,4

CN(C)CCCN1c2ccccc2C2C(c3ccccc3)=NN(c3ccccc3)C2c2ccccc21 (stereo not drawn) [compound 8, (y-diméthylaminopropyl)-8 diphênyl-1,3 tétrahydro-1,3a,8, 12b(dibenzo [b,f]pyrazolo [3,4-d])azépine]
LD50 at 48 h [1]: > 250 mg/kg | mortality at 48 h ([1]; 5 mg/kg): 0% | mortality at 48 h ([1]; 50 mg/kg): 0% | mortality at 48 h ([1]; 100 mg/kg): 0% | mortality at 48 h ([1]; 150 mg/kg): 20% | mortality at 48 h ([1]; 250 mg/kg): 0% | Mortalité en 1 heure ([2]; 5 mg/kg): 0 | Mortalité en 48 h. ([2]; 5 mg/kg): 0 | Mortalité en 1 heure ([2]; 50 mg/kg): 0 | Mortalité en 48 h. ([2]; 50 mg/kg): 0 | Mortalité en 1 heure ([2]; 100 mg/kg): 0 | Mortalité en 48 h. ([2]; 100 mg/kg): 0 | Mortalité en 1 heure ([2]; 150 mg/kg): 1 | Mortalité en 48 h. ([2]; 150 mg/kg): 1 | Mortalité en 1 heure ([2]; 250 mg/kg): 0 | Mortalité en 48 h. ([2]; 250 mg/kg): 0

CC(CN(C)C)CN1c2ccccc2C2C(c3ccccc3)=NN(c3ccccc3)C2c2ccccc21 (stereo not drawn) [compound 9, (méthyl-2 diméthylamino-3 propyl)-8 diphényl-1,3 tétrahydro-1,3a, 8, 12b (dibenzo [b, f]pyrazolo [3,4-d])azépine]
LD50 at 48 h [1]: > 300 mg/kg | mortality at 48 h ([1]; 150 mg/kg): 0% | mortality at 48 h ([1]; 300 mg/kg): 0% | Mortalité en 1 heure ([2]; 150 mg/kg): 0 | Mortalité en 48 h. ([2]; 150 mg/kg): 0 | Mortalité en 1 heure ([2]; 300 mg/kg): 0 | Mortalité en 48 h. ([2]; 300 mg/kg): 0 | change in vivo at 50 mg/kg [3, 5]: 60% | variation de température T= 2h ([3]; product i.p. 50 mg/kg): +0,8 | variation de température T=3h ([3]; product i.p. 50 mg/kg): +0,6 | variation de température T=4h ([3]; product i.p. 50 mg/kg): +0,1

c1ccc(-c2nn(-c3ccccc3)c3c2-c2ccccc2Nc2ccccc2-3)cc1 [compound 12, diphényl-1,3 dihydro-1,8 (dibenzo[b,f]pyrazolo[3,4-d]) azépine]
LD50 at 48 h [1]: > 250 mg/kg | mortality at 48 h ([1]; 125 mg/kg): 0% | mortality at 48 h ([1]; 250 mg/kg): 0% | Mortalité en 1 heure ([2]; 125 mg/kg): 0 | Mortalité en 48 h. ([2]; 125 mg/kg): 0 | Mortalité en 1 heure ([2]; 250 mg/kg): 0 | Mortalité en 48 h. ([2]; 250 mg/kg): 0 | change in vivo at 50 mg/kg [3, 5]: 10% | variation de température T= 2h ([3]; product i.p. 50 mg/kg): +0,4 | variation de température T=3h ([3]; product i.p. 50 mg/kg): +0,3 | variation de température T=4h ([3]; product i.p. 50 mg/kg): +0,4

CN(C)CCCN1c2ccccc2-c2c(-c3ccccc3)nn(-c3ccccc3)c2-c2ccccc21 [compound 14, (γ-diméthylaminopropyl)-8-diphényl-1,3 dihydro-1,8 (dibenzo [b,f]pyrazolo [3,4-d])azépine]
LD50 at 48 h [1]: 200 mg/kg | mortality at 48 h ([1]; 50 mg/kg): 0% | mortality at 48 h ([1]; 100 mg/kg): 0% | mortality at 48 h ([1]; 250 mg/kg): 80% | mortality at 48 h ([1]; 500 mg/kg): 100% | Mortalité en 1 heure ([2]; 50 mg/kg): 0 | Mortalité en 48 h. ([2]; 50 mg/kg): 0 | Mortalité en 1 heure ([2]; 100 mg/kg): 0 | Mortalité en 48 h. ([2]; 100 mg/kg): 0 | Mortalité en 1 heure ([2]; 250 mg/kg): 2 | Mortalité en 48 h. ([2]; 250 mg/kg): 4 | Mortalité en 1 heure ([2]; 500 mg/kg): 3 | Mortalité en 48 h. ([2]; 500 mg/kg): 5 | change in vivo at 150 mg/kg [3, 4]: 40% | variation de température T=1h ([3]; product i.p. 150 mg/kg): +1,5 | variation de température T= 2h ([3]; product i.p. 150 mg/kg): +0,6 | variation de température T=3h ([3]; product i.p. 150 mg/kg): +0,6 | variation de température T=4h ([3]; product i.p. 150 mg/kg): +0,1

CC(CN(C)C)CN1c2ccccc2-c2c(-c3ccccc3)nn(-c3ccccc3)c2-c2ccccc21 (stereo not drawn) [compound 15, (méthyl-2 diméthylamino-3 propyl)-8 diphényl 1,3 dihydro-1,8(dibenzo [b,f]pyrazolo [3 ,4-d]) azépine]
LD50 at 48 h [1]: 175 mg/kg | mortality at 48 h ([1]; 50 mg/kg): 0% | mortality at 48 h ([1]; 100 mg/kg): 0% | mortality at 48 h ([1]; 250 mg/kg): 80% | mortality at 48 h ([1]; 300 mg/kg): 80% | Mortalité en 1 heure ([2]; 50 mg/kg): 0 | Mortalité en 48 h. ([2]; 50 mg/kg): 0 | Mortalité en 1 heure ([2]; 100 mg/kg): 0 | Mortalité en 48 h. ([2]; 100 mg/kg): 0 | Mortalité en 1 heure ([2]; 250 mg/kg): 2 | Mortalité en 48 h. ([2]; 250 mg/kg): 4 | Mortalité en 1 heure ([2]; 300 mg/kg): 0 | Mortalité en 48 h. ([2]; 300 mg/kg): 4

c1ccc(-c2noc3c2-c2ccccc2Nc2ccccc2-3)cc1 [compound 16, phényl-3 (dibenzo [b,f]isoxazolo [4,5-d]) 8H azépine]
LD50 at 48 h [1]: > 1000 mg/kg | mortality at 48 h ([1]; 50 mg/kg): 0% | mortality at 48 h ([1]; 100 mg/kg): 0% | mortality at 48 h ([1]; 250 mg/kg): 20% | mortality at 48 h ([1]; 500 mg/kg): 0% | mortality at 48 h ([1]; 1000 mg/kg): 0% | Mortalité en 1 heure ([2]; 50 mg/kg): 0 | Mortalité en 48 h. ([2]; 50 mg/kg): 0 | Mortalité en 1 heure ([2]; 100 mg/kg): 0 | Mortalité en 48 h. ([2]; 100 mg/kg): 0 | Mortalité en 1 heure ([2]; 250 mg/kg): 0 | Mortalité en 48 h. ([2]; 250 mg/kg): 1 | Mortalité en 1 heure ([2]; 500 mg/kg): 0 | Mortalité en 48 h. ([2]; 500 mg/kg): 0 | Mortalité en 1 heure ([2]; 1000 mg/kg): 0 | Mortalité en 48 heures ([2]; 1000 mg/kg): 0

(γ-diméthylaminopropyl)-8 phényl-1 (chloro-4' phényl)-3 tétrahydro-1,3a, 8,12b(dibenzo[b,f]pyrazolo [3,4-d])azépine [compound 11]
DL 50 ([2]; souris femelles, 2880 min): >1000 mg/kg | Mortalité % ([2]; 250 mg/kg, 2880 min): 0% | Mortalité en 1 heure ([2]; 250 mg/kg): 0 | Mortalité en 48 h. ([2]; 250 mg/kg): 0 | Mortalité % ([2]; 450 mg/kg, 2880 min): 0% | Mortalité en 1 heure ([2]; 450 mg/kg): 0 | Mortalité en 48 heures ([2]; 450 mg/kg): 0 | Mortalité % ([2]; 1000 mg/kg, 2880 min): 0% | Mortalité en 1 heure ([2]; 1000 mg/kg): 0 | Mortalité en 48 heures ([2]; 1000 mg/kg): 0 | % d'augmentation par rapport aux témoins ([3]; product i.p. 150 mg/kg): 85% | variation de température T= 2h ([3]; product i.p. 150 mg/kg): +0,4 | variation de température T=3h ([3]; product i.p. 150 mg/kg): +0,5 | variation de température T=4h ([3]; product i.p. 150 mg/kg): +0,7
